The values below come from patent publication US20230364075A1, “[…] DOSAGE FORMS COMPRISING DEUTETRABENAZINE” (AUSPEX PHARMACEUTICALS, INC., priority 2020, published 2023).

The test system of data set [1] is small intestinal (SI) segments. It counts as in vivo. The note with it: rat. From the text:
(§1) Deutetrabenazine is permeable through the small intestinal (SI) segments in a rat perfusion model.

On the set-up of data set [2]: species or system human. The note with it: in vivo.
A short description of data set [3]: Solubility of deutetrabenazine versus pH. The class given is physicochemical. The method, then:
as §1
The dosage forms disclosed herein were developed to achieve similar pharmacokinetics (PK) of 2 doses of AUSTEDO® 12 mg tablets with a single daily dose (QD).

For data set [4] the following is noted: in vivo; cited from earlier work.
The nature of data set [5]: Particle size distribution by laser diffractometry (Mastersizer 3000). The note with it: drug substance, Table 1. The class given is physicochemical. How it is done: Particle size distribution is determined by means of laser diffractometry. More specifically, the particle size distribution was determined using a Mastersizer 3000 from Malvern Instruments. The particle size determination may be carried out as a wet or dry measurement depending on the sample.
The deutetrabenazine particle size distributions following manufacture (untreated), micronization (air jet mill) and nano-milling (Dyno bead mill) are shown in Table 1.
Using a Mastersizer 3000 (Malvern Instruments), the following settings were used for dry measurement of the micro-milled and unmilled deutetrabenazine:
Using a Mastersizer 3000 (Malvern Instruments), the following settings were used for wet measurement of the nano-milled deutetrabenazine:
Deutetrabenazine particle size was reduced to a nanometer size (<1.0 micron) using a wet Dyno milling process in several passes. The milled deutetrabenazine was dispersed in excipient as above. The dispersion was passed through a 0.3 liter agitator bead mill containing 950 g of very high density zirconium oxide beads. The dispersion was passed through the agitator mill for up to 2 hrs to obtain particle size below 1.0 micron.

Regarding `[2H]C([2H])([2H])Oc1cc2c(cc1OC([2H])([2H])[2H])[C@H]1CC(=O)[C@H](CC(C)C)CN1CC2` [Deutetrabenazine, (RR,SS)-1,3,4,6,7,11b-hexahydro-9,10-di(methoxy-D3)-3-(2-methylpropyl)-2H-benzo[a]quinolizin-2-one], in data set [1], the “permeability through small intestinal (SI) segments” value is “permeable”. In data set [1] (in vivo), the ileum absorption entry is “about 0.0006 cm/sec” and the “levels of absorption in the lower GI, order of segments” value is listed as “Jejunum<Mid-small intestine<Colon<Ileum”. In addition, the “radioactive dose recovered in urine” value in data set [2] is “approximately 80%”. In addition, the solubility (commonly the concentration that dissolves in the medium under given conditions) in data set [3] (acidic environment (pH<4)) is “relatively good solubility”. Moreover, the solubility in data set [3] (pH ≥4) was below 2300 µg/mL. Moreover, in data set [4], the “half-life of active metabolites relative to tetrabenazine” value was “increased half-life”.
Take `[2H]C([2H])([2H])Oc1cc2c(cc1OC([2H])([2H])[2H])C1CC(=O)C(CC(C)C)CN1CC2` (stereo not shown) [micro-milled]: in data set [5], the D10 amounted to 1.08 μm, the D50 is 3.31 μm and the D90 worked out at 7.05 μm.
The like results for `[2H]C([2H])([2H])Oc1cc2c(cc1OC([2H])([2H])[2H])C1CC(=O)C(CC(C)C)CN1CC2` (stereo not shown) [nano-milled] were, in that order, 0.07 μm, 0.14 μm and 0.34 μm.
